Laboratory results reported in patent US9079834B2, “HIV protease inhibitors” (Merck Canada Inc., priority 2010, dated 2015).

Assays:
wild-type HIV-1 protease = wild-type HIV-1 protease (Human immunodeficiency virus type 1 group M subtype B (isolate HXB2) (HIV-1), UniProt P04585); test: Assay for inhibition of microbial expressed HIV protease; format: biochemical; conditions: wild-type HIV-1 protease enzyme
Method: The inhibition of WT HIV-1 protease was studied using the reaction of the protease (expressed in Escherichia coli) with a peptide substrate as described in WO 2009/042094. The test compound was first preincubated with the enzyme in assay buffer (50 mM sodium acetate, pH 5.5, 100 mM NaCl, and 0.1% BSA) for 30 minutes at room temperature. Substrate was then added to 400 micromolar in a total volume of 80 microliters containing 10 picomolar HIV-1 protease and the reaction was incubated for 1 hour at 30° C. The reaction was quenched with the addition of 120 microliters of 10% phosphoric acid. The product formation was determined after separation of product and substrate on a ZORBAX® Eclipse XDB-C18 (Agilent Technologies, Palo Alto, Calif.) column connected to an Agilent 1100 high performance liquid chromatography system with fluorescence detection (excitation 270 nanometer and emission 330 nanometer). Alternatively, the inhibitor was preincubated with enzyme and substrate as described above, but in a total volume of 20 microliters containing 20 picomolar HIV-1 protease and the reaction was incubated for 1 hour at 30° C. The reaction was quenched with the addition of 30 microliters of 1 micromolar indinavir (indinavir was also used as an internal standard), and the product formation was determined after separation of product and substrate on a ZORBAX® Eclipse XDB-C18 column connected to an API 4000 mass spectrometer (Applied Biosystems, Carlsbad, Calif.) with multiple reaction monitoring (transitions were 644.5/428.9 and 615.4/422.2 (M1/M3) for product and indinavir respectively). The extent of inhibition of the reaction was determined from the peak area of the products. HPLC of the products, independently synthesized, provided quantitation standards and confirmation of the product composition.

[1] = system: HIV-1 replication in T-lymphoid cells; test: Assay for inhibition of HIV replication (spread assay); format: cell-based; conditions: 10% FBS
Method: Assays for the inhibition of acute HIV infection of T-lymphoid cells were conducted in accordance with Vacca, J. P. et al., Proc. Natl. Acad. Sci. USA 91: 4096-4100 (1994).

[2] = Human immunodeficiency virus 1, T-lymphoid

SMILES | IC50 (wild-type HIV-1 protease) [nM] | IC95 [1] [nM] | IC95 [1, 2] [nM]
COC(=O)N[C@H](C(=O)NCC(F)CC[C@@H](CO)N(CCC(C)C)S(=O)(=O)c1ccc(N)cc1)C(c1ccccc1)c1ccccc1 (single isomer, unassigned) [Example 1-1, N-[(2R or S,5S)-5-{[(4-aminophenyl)sulfonyl](3-methylbutyl)amino}-2-fluoro-6-hydroxyhexyl]-Nα-(methoxycarbonyl)-β-phenyl-L-phenylalaninamide] | 0.24 | 42.8 | –
COC(=O)N[C@H](C(=O)NCC(F)CC[C@@H](CO)N(CCC(C)C)S(=O)(=O)c1ccc(N)cc1)C(c1ccccc1)c1ccccc1 (single isomer, unassigned) [Example 1-2, N-[(2R or S,5S)-5-{[(4-aminophenyl)sulfonyl](3-methylbutyl)amino}-2-fluoro-6-hydroxyhexyl]-Nα-(methoxycarbonyl)-β-phenyl-L-phenylalaninamide] | 0.01 | 19.5 | –
COC(=O)N[C@H](C(=O)NCC(F)CC[C@@H](CO)N(CCC(C)C)S(=O)(=O)c1ccc(N)cc1)C(c1ccccc1)c1ccccc1 (stereo partly drawn) [Example 1, N-[(5S)-5-{[(4-aminophenyl)sulfonyl](3-methylbutyl)amino}-2-fluoro-6-hydroxyhexyl]-Nα-(methoxycarbonyl)-β-phenyl-L-phenylalaninamide] | 0.03 | – | 10.7
CCCCCN([C@H](CO)CCC(F)(F)CNC(=O)[C@@H](NC(=O)OC)C(c1ccccc1)c1ccccc1)S(=O)(=O)c1ccc(CO)cc1 [Example 2] | 0.019 | – | 16.3
COC(=O)N[C@H](C(=O)NCC(F)(F)CC[C@@H](CO)N(CC1CC(F)(F)C1)S(=O)(=O)c1ccc2ncsc2c1)C(c1ccccc1)c1ccccc1 [Example 4, N-[(5S)-5-{(1,3-benzothiazol-6-ylsulfonyl)[(3,3-difluorocyclobutyl)methyl]amino}-2,2-difluoro-6-hydroxyhexyl]-Nα-(methoxycarbonyl)-β-phenyl-L-phenylalaninamide] | 0.59 | – | 181
COC(=O)N[C@H](C(=O)NCC(F)(F)CC[C@@H](CO)N(Cc1cn[nH]c1)S(=O)(=O)c1ccc2ncsc2c1)C(c1ccccc1)c1ccccc1 [Example 5, N-{(5S)-5-[(1,3-benzothiazol-6-ylsulfonyl)(1H-pyrazol-4-ylmethyl)amino]-2,2-difluoro-6-hydroxyhexyl}-Nα-(methoxycarbonyl)-β-phenyl-L-phenylalaninamide] | 0.39 | – | 907
COC(=O)N[C@H](C(=O)NCC(F)(F)CC[C@@H](CO)N(C1CCC(F)(F)CC1)S(=O)(=O)c1ccc2ncsc2c1)C(c1ccccc1)c1ccccc1 [Example 6, N-{(5S)-5-[(1,3-benzothiazol-6-ylsulfonyl)(4,4-difluorocyclohexyl)amino]-2,2-difluoro-6-hydroxyhexyl)-Nα-(methoxycarbonyl)-β-phenyl-L-phenylalaninamide] | 2.73 | – | 356
COC(=O)N[C@H](C(=O)NCC(F)(F)CC[C@@H](C(N)=O)N(CC1CC(F)(F)C1)S(=O)(=O)c1ccc2ncsc2c1)C(c1ccccc1)c1ccccc1 [Example 7, N^6-[N-(methoxycarbonyl)-β-phenyl-L-phenylalanyl]-N^2-(1,3-benzothiazol-6-ylsulfonyl)-N^2-[(3,3-difluorocyclobutyl)methyl]-5,5-difluoro-L-lysinamide] | 0.43 | – | 200
COC(=O)N[C@H](C(=O)NCCC(F)(F)C[C@@H](CO)N(C(C)C)S(=O)(=O)c1ccc(N)cc1)C(c1ccccc1)c1ccccc1 [Example 8, N-[(5S)-5-{[(4-aminophenyl)sulfonyl](propan-2-yl)amino}-3,3-difluoro-6-hydroxyhexyl]-Nα-(methoxycarbonyl)-β-phenyl-L-phenylalaninamide] | 6.07 | – | 299
COC(=O)N[C@H](C(=O)NCCC(F)(F)C[C@@H](CO)N(CC1CC(F)(F)C1)S(=O)(=O)c1ccc2ncsc2c1)C(c1ccccc1)c1ccccc1 [Example 9, N-[(5S)-5-{(1,3-benzothiazol-6-ylsulfonyl)[(3,3-difluorocyclobutyl)methyl]amino}-3,3-difluoro-6-hydroxyhexyl]-Nα-(methoxycarbonyl)-β-phenyl-L-phenylalaninamide] | 5.62 | – | 105
COC(=O)N[C@H](C(=O)NCCC(F)C[C@@H](CO)N(C(C)C)S(=O)(=O)c1ccc(N)cc1)C(c1ccccc1)c1ccccc1 (stereo partly drawn) [Example 10, N-[(5S)-5-{[(4-aminophenyl)sulfonyl](propan-2-yl)amino}-3-fluoro-6-hydroxyhexyl]-Nα-(methoxycarbonyl)-β-phenyl-L-phenylalaninamide] | 3.9 | – | 246
